Experimental data from ChEMBL document CHEMBL1201862, “PubChem BioAssay data set” (2004).
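Step 1: Grow cells in 96-well plates. Step 2: Expose to compound for 48 hours at 5 concentrations. Step 3: Interpolate endpoints linearly; if unreached, use highest concentration. Abbreviation: GI50, concentration required for 50% inhibition of growth.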 The source made the active and inactive calls. No stated cut-off is given here; in the data, active = GI50 up to about 1.1 µM and inactive = higher.

Experiments:
Test in all cases: inhibition of tumour cell growth, NCI panel, 48 h
[1] = system: KM-20L2
[2] = system: DMS-273
[3] = system: HOP-18
[4] = system: DLD-1
[5] = system: DMS-114
[6] = system: XF498
[7] = system: LXFL 529
[8] = system: M19-MEL
[9] = system: RXF 631

Measured: GI50

O=c1cc(O)ccn1C1C=C(CO)C(O)C1O (stereo not drawn)
inactive: [1] > 625 µM | [2] > 625 µM | [3] > 625 µM | [4] > 625 µM | [5] > 625 µM
active: [6] < 0.0625 µM

Cc1c(/C=N/NC(=O)c2ccccc2O)c(=O)n(-c2ccccc2)n1C
inactive: [1] > 100 µM | [7] > 100 µM | [8] > 100 µM | [2] 58.5 µM | [3] > 100 µM | [4] > 100 µM | [5] > 100 µM | [6] > 100 µM

O=C(/C=C(\O)C(=O)O)/C=C(\O)c1ccccc1Cl
inactive: [1] > 100 µM | [7] > 100 µM | [2] > 100 µM | [3] > 100 µM | [4] > 100 µM | [5] > 100 µM | [6] > 100 µM

CC(=O)Nc1ccccc1-c1nc2ccccc2nc1C
inactive: [1] > 100 µM | [7] > 100 µM | [8] > 100 µM | [3] > 100 µM | [4] > 100 µM | [5] > 100 µM | [9] > 100 µM

CC1(O)CCC2(C#N)CCC1C2O (stereo not drawn)
inactive: [1] 62.2 µM | [7] > 100 µM | [8] > 100 µM | [2] 94.4 µM | [3] > 100 µM | [4] 34 µM | [5] 16.2 µM | [6] > 100 µM | [9] > 100 µM

COCOc1ccc(Cn2c(=O)n(C)c(=O)c3c2ncn3C)cc1[N+](=O)[O-]
inactive: [1] > 100 µM | [7] 79.8 µM | [8] > 100 µM | [2] > 100 µM | [4] > 100 µM | [5] 44.6 µM

COc1cc[n+](C)cc1
inactive: [1] > 100 µM | [8] > 100 µM | [2] > 100 µM | [3] > 100 µM | [4] > 100 µM | [5] > 100 µM | [6] > 100 µM

CC(=O)NC(CCCNC(=O)OCc1ccccc1)C(=O)O (stereo not drawn)
inactive: [1] > 100 µM | [7] 47.5 µM | [8] > 100 µM | [2] > 100 µM | [4] > 100 µM | [5] > 100 µM | [6] > 100 µM | [9] > 100 µM

CCc1nc2ccccc2c(=O)n1/N=C(\N=N\c1ccc(Cl)cc1)c1ccccc1
inactive: [1] 14 µM | [7] 19.1 µM | [8] 41.8 µM | [2] 20.7 µM | [3] 12.5 µM | [4] 37.2 µM | [5] 18.7 µM

Cc1c(N2CCN(C)CC2)nc2ccc(Cl)cc2c1-c1ccccc1
inactive: [1] 15.7 µM | [7] 16.9 µM | [2] 17 µM | [5] 15.8 µM

C[C@H]1COC2(c3ccccc3)CCC(=O)N12 (stereo partly drawn)
inactive: [1] > 100 µM | [8] > 100 µM | [2] > 100 µM | [3] > 100 µM | [4] > 100 µM | [5] > 100 µM | [6] > 100 µM

N#C/C(=C\c1ccc(C(O)P(=O)(O)O)cc1)C(N)=O (stereo not drawn)
inactive: [1] > 100 µM | [7] > 100 µM | [8] > 100 µM | [2] > 100 µM | [3] > 100 µM | [4] > 100 µM | [5] 17.2 µM | [6] > 100 µM | [9] > 100 µM

COc1cc(-c2ccc(/N=N/c3c(S(=O)(=O)O)cc4cc(S(=O)(=O)O)cc(N)c4c3O)c(OC)c2)ccc1/N=N/c1c(S(=O)(=O)O)cc2cc(S(=O)(=O)O)cc(N)c2c1O
inactive: [1] 35 µM | [8] > 100 µM | [2] > 74.6 µM | [4] > 94 µM | [5] 73.1 µM | [6] 6.89 µM

O=C(CSc1nnc(-c2ccc(/N=C\c3ccc(Cl)cc3)cc2)o1)Nc1ccccc1
inactive: [1] > 100 µM | [7] 50.6 µM | [8] 36.6 µM | [2] 27.3 µM | [3] 54.2 µM | [5] 58.1 µM | [6] > 100 µM
